Laboratory results published in article PMC6511062, “Preclinical candidate for the treatment of visceral leishmaniasis that acts through proteasome inhibition” (Proceedings of the National Academy of Sciences of the …, 2019).
Where two headings read alike, the source gives them in different places.

What was measured:
[1] = test system: bloodstream T. brucei; assay: T. brucei stem-loop RNAi knock-down lines, drug sensitivity; type: cell-based, Trypanosoma brucei; conditions: for EC50: Trypanosoma brucei
Procedure: f. T. brucei RNAi constructs and cell lines
PCR primers (Table S6) were designed using RNAit28 to generate a 500-bp fragment conferring specific knockdown to Tb927.8.6620 (Table S7) and a 543-bp fragment of Tb927.9.15260 PCR fragments were cloned in the pRPaSLi construct for the generation of stem-loop dsRNA under the control of tetracycline as the trigger for RNAi28,29. Constructs were digested with AscI, EtOH-precipitated, and resuspended ([…]) in sterile water. 2T1 strains, containing a tetracycline repressor, were electroporated using program X-001 of the Nucleofector II electroporator (Amaxa, Cologne, Germany)30 following the addition of 5 µg of linearized DNA mixed in 100 µL of cytomix31. Transformants were cloned by limiting dilution under phleomycin (1 µg/mL) and hygromycin (2.5 µg/mL) selection. Puromycin susceptibility (1 µg/mL) was tested for full integration of the construct and expression of stem-loop RNAi was induced with concentrations of tetracycline ranging from […].
T. brucei RNA was isolated using an RNeasy purification kit (Qiagen) and cDNA-synthesized using a high capacity RNA-to-cDNA kit (Applied Biosystems). PCR primers (Table S6) were designed using the Premierbiosoft's Beacon Designer 6. qRT-PCRs […]
knock-down bloodstream trypanosomes. Transcript levels in trypanosomes where RNAi was induced by the addition of tetracycline (1 µg/mL, 24 h) were compared to wild-type (uninduced) levels. Relative levels of cDNA were normalized using the reference gene TERT (Tb927.11.10190, telomerase reverse transcriptase).
Compound 7, nM Compound 7, nM
Figure S4. Dose-response curves for compound 7 against cell lines where […]
(open circles) and induced (closed circles), respectively. […]
and 8.7 ± 0.3 nM for Tb927.8.6620RNAi uninduced (open circles) and induced (closed circles), respectively. Results are the means standard deviations of data from three […]

[2] = test system: TA100
Procedure: (§1) oxidative metabolism system (S9-mix). The maximum concentration tested and […]
(§2) Compound 7a was tested in a bacterial mutation screening assay (Ames test) with Salmonella typhimurium TA1535, TA1537, TA98, TA100 and Escherichia coli WP2uvrA(pKM101) in the presence and absence of an exogenous mammalian […]
(§3) The bacterial mutation screening assay was a plate incorporation test carried out as previously described15 and according to current methodology. […]

[3] = test system: TA1535
Procedure: as §1, §2, §3

[4] = Pharmacokinetics in male CD-1 mice; type: in vivo, mouse
Procedure: 5. Intrinsic clearance (CLint) […]
6. Pharmacokinetic studies.
Mouse pharmacokinetic studies were conducted in male CD-1 mice and male beagle dogs. 3 animals per group were used for each study performed.
A dose of 3 mg/kg was administered intravenously, in a bolus form to mice and infused over a 30 min period to dogs. For all the intravenous studies compound were dissolved in 5% DMSO/20% kleptose in saline.
A dose of 10 mg/kg was orally administered by gavage to the two species in a suspension of 1% methylcellulose to investigate oral pharmacokinetics.
Peripheral blood samples were obtained at 5, 15, 30 min, 1, 2, 4, 6 ,8 and 24 h after intravenous administration and 15, 30, 45 min,1, 2, 4, 6, 8 and 24 h after oral administration. Blood was 1/2 diluted with milliQ water and immediately frozen on dry ice until analysis. Quantification was performed by means of LC-MS/MS (API4000), with a lower limit of quantification of 1 ng/mL.
Pharmacokinetic parameters, namely clearance (CL), volume of distribution at steady state (Vss) and bioavailability (F%), were estimated using Phoenix, WinNonLin […]
Data analysis and calculation of pharmacokinetic parameters was performed using Phoenix, WinNonLin Version 6.3.
Following the intravenous administration, the whole blood clearance was calculated

[5] = test system: Salmonella typhimurium TA1535, TA1537, TA98, TA100 and Escherichia coli WP2uvrA(pKM101); assay: Bacterial mutation screening assay (Ames test), overall outcome; type: cell-based; conditions: presence and absence of S9-mix
Procedure: i. Bacterial Mutation (Ames) Assay
Compound 6 was tested in a bacterial mutation screening assay (Ames test) with Salmonella typhimurium TA1535, TA1537, TA98, TA100 and Escherichia coli WP2uvrA(pKM101) in the presence and absence of an exogenous mammalian oxidative metabolism system (S9-mix). The maximum concentration tested and […]
Compound 6a was tested in a bacterial mutation screening assay (Ames test) with […]
Compound 7a was tested in a bacterial mutation screening assay (Ames test) with […]
as §3

[6] = test system: mouse lymphoma cells; assay: Mouse lymphoma assay
Procedure: oxidative metabolism system (S9-mix). […]
The maximum […]
concentrations analysed were 410.45 µg/mL (1 mM, the maximum concentration in accordance with current guidelines and 100 µg/mL (limited by toxicity), for the 3 and […]
The mouse lymphoma screen was carried out using test methodology based on established procedures for in vitro gene mutation testing17,18,19,20. […]

[7] = with S9-mix, dose level 50 per plate
[8] = with S9-mix, dose level 150 per plate
[9] = with S9-mix, dose level 500 per plate
[10] = with S9-mix, dose level 1500 per plate
[11] = with S9-mix, dose level 2500 per plate
[12] = with S9-mix, dose level 5000 per plate
[13] = without S9-mix, dose level 50 per plate
[14] = without S9-mix, dose level 150 per plate
[15] = without S9-mix, dose level 500 per plate
[16] = without S9-mix, dose level 1500 per plate
[17] = without S9-mix, dose level 2500 per plate
[18] = without S9-mix, dose level 5000 per plate
[19] = male, CD-1, whole blood, mouse, 3 mg/kg iv bolus

For `O=C(Nc1ccc(F)c(-c2cn3nc(-c4ccccc4)cnc3n2)c1)N1CCCC1` [Compound 7], which EC50 ([1]; Tb927.8.6620 RNAi induced) is on record?
Its EC50 is 8.7 ± 0.3 nM.

And the EC50 ([1]; Tb927.8.6620 RNAi uninduced)?
Its EC50 is 4.2 ± 0.2 nM.

What about the EC50 ([1]; Tb927.9.15260 RNAi induced) of the same molecule?
Its EC50 is 8 ± 0.4 nM.

And the EC50 ([1]; Tb927.9.15260 RNAi uninduced)?
The EC50 was 4.1 ± 0.2 nM.

And the “resistance conferred by RNAi knockdown” value ([1]; knockdown of Tb927.9.15260 and Tb927.8.6620)?
The value was “approximately twofold”.

For `O=C(Nc1ccc(F)c(-c2ccn3c(N4CCOCC4)cnc3n2)c1)N1CCCC1` [Compound 8], which “Mean revertants per plate” value [2, 7] is on record?
The value was 123.0.

And the “Mean revertants per plate” value [2, 8]?
Its value is 96.5.

And the “Mean revertants per plate” value [2, 9]?
Its value is 106.5.

What about the “Mean revertants per plate” value [2, 10] of the same molecule?
Its value is 118.0.

What about the “Mean revertants per plate” value [2, 11] of the same molecule?
The value was 101.0.

And the “Mean revertants per plate” value [2, 12]?
Its value is 122.5.

And the “Mean revertants per plate” value [2, 13]?
Its value is 99.0.

What about the “Mean revertants per plate” value [2, 14] of the same molecule?
Its value is 97.0.

What about the “Mean revertants per plate” value [2, 15] of the same molecule?
Its value is 86.0.

What about the “Mean revertants per plate” value [2, 16] of the same molecule?
Its value is 109.5.

What about the “Mean revertants per plate” value [2, 17] of the same molecule?
Its value is 91.5.

And the “Mean revertants per plate” value [2, 18]?
Its value is 94.5.

What about the “Mean revertants per plate” value [3, 7] of the same molecule?
Its value is 12.0.

What about the “Mean revertants per plate” value [3, 8] of the same molecule?
The value was 10.0.

What about the “Mean revertants per plate” value [3, 9] of the same molecule?
The value was 17.5.

And the “Mean revertants per plate” value [3, 10]?
Its value is 13.5.

What about the “Mean revertants per plate” value [3, 11] of the same molecule?
The value was 12.5.

And the “Mean revertants per plate” value [3, 12]?
Its value is 9.0.

What about the “Mean revertants per plate” value [3, 13] of the same molecule?
Its value is 19.0.

And the “Mean revertants per plate” value [3, 14]?
The value was 15.0.

And the “Mean revertants per plate” value [3, 15]?
The value was 21.5.

And the “Mean revertants per plate” value [3, 16]?
The value was 16.0.

What about the “Mean revertants per plate” value [3, 17] of the same molecule?
The value was 15.5.

And the “Mean revertants per plate” value [3, 18]?
Its value is 18.0.

And the clearance [4, 19]?
The clearance was 40.7 ± 13.6 mL/min/kg.

And the half-life [4, 19]?
The half-life was 39 ± 19.2 min.

And the Vd ([4]; male, CD-1, whole blood, mouse, 3 mg/kg iv bolus, read-out: Vss)?
Its Vd is 2.2 L/kg.

And the blood clearance ([4]; mouse)?
Its blood clearance is 41 mL/min per kilogram.

What about the “Cl (%LBF)” value ([4]; mouse, 3 mg/kg iv) of the same molecule?
The value was 32%.

What about the bioavailability ([4]; whole blood, CD-1 male mouse, 10 mg/kg po, read-out: F (oral bioavailability)) of the same molecule?
The bioavailability was 18%.

What about the AMES [5] of the same molecule?
Its AMES is “negative”.

What about the “MF (Mutation Frequency)” value ([6]; 3 hour +S9 treatment, 375 µg/mL) of the same molecule?
Its value is 191.25 ×10-6.

What about the “MF (Mutation Frequency)” value ([6]; 3 hour +S9 treatment, 410.445 µg/mL) of the same molecule?
Its value is 222.38 ×10-6.

What about the “mouse lymphoma screen result” value ([6]; 3 hours with S9-mix and 24 hours without S9-mix) of the same molecule?
Its value is “negative”.

And the “MF (Mutation Frequency)” value ([6]; 24 hour -S9 treatment, 40 µg/mL)?
The value was 75.89 ×10-6.

What about the “MF (Mutation Frequency)” value ([6]; 24 hour -S9 treatment, 70 µg/mL) of the same molecule?
Its value is 78.36 ×10-6.

What about the “MF (Mutation Frequency)” value ([6]; 24 hour -S9 treatment, 100 µg/mL) of the same molecule?
The value was 86.96 ×10-6.
